Tests used:
Format in all cases: cell-based
[1] = MIC in vitro anti-bacterial experiments, Gram-positive bacteria; details: lowest MIC reached; read-out: minimum inhibitory concentration against Gram-positive bacteria
Text: 1. The invention adopts the two-fold agar dilution method recommended by the operating procedure of antimicrobial susceptibility testing set by American Clinical and Laboratory Standards Institute (CLSI) to determine the Minimum Inhibitory Concentration (MIC) of the test samples against the tested strains.

[2] = test system: Enterococcus faecalis (EFA); assay: MIC, two-fold agar dilution (CLSI), clinical isolates
Method in brief: (§1)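 Test samples were assayed by the CLSI-recommended two-fold agar dilution method, and the minimum inhibitory concentration against each tested strain was determined.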

[3] = test system: methicillin-sensitive Staphylococcus aureus (MSSA); assay: as above; details: for Anti-bacterial activity (MIC), strain MSSA 15-3: clinical isolate MSSA 15-3; for Anti-bacterial activity (MIC), strain MSSA 15-4: clinical isolate MSSA 15-4; for Anti-bacterial activity (MIC), strain MSSA 15-5: clinical isolate MSSA 15-5; for Anti-bacterial activity (MIC), strain MSSA 15-6: clinical isolate MSSA 15-6
Method in brief: as §1

[4] = test system: Moraxella catarrhalis (BCA); assay: as above
Method in brief: as §1

[5] = test system: Escherichia coli (including ESBLs, non-ESBLs); assay: as above; details: for Anti-bacterial activity (MIC), strain ECO+ 15-1: clinical isolate ECO+ 15-1; for Anti-bacterial activity (MIC), strain ECO+ 15-2: clinical isolate ECO+ 15-2; for Anti-bacterial activity (MIC), strain ECO+ 15-3: clinical isolate ECO+ 15-3; for Anti-bacterial activity (MIC), strain ECO+ 15-4: clinical isolate ECO+ 15-4; for Anti-bacterial activity (MIC), strain ECO− 15-1: clinical isolate ECO− 15-1; for Anti-bacterial activity (MIC), strain ECO− 15-2: clinical isolate ECO− 15-2; for Anti-bacterial activity (MIC), strain ECO− 15-3: clinical isolate ECO− 15-3; for Anti-bacterial activity (MIC), strain ECO− 15-4: clinical isolate ECO− 15-4
Method in brief: as §1

[6] = test system: methicillin-resistant Staphylococcus epidermidis (MRSE); assay: as above; details: for Anti-bacterial activity (MIC), strain MRSE 15-1: clinical isolate MRSE 15-1; for Anti-bacterial activity (MIC), strain MRSE 15-2: clinical isolate MRSE 15-2; for Anti-bacterial activity (MIC), strain MRSE 15-3: clinical isolate MRSE 15-3; for Anti-bacterial activity (MIC), strain MRSE 15-7: clinical isolate MRSE 15-7
Method in brief: as §1

[7] = test system: Enterococcus faecium (EFM); assay: as above
Method in brief: as §1

[8] = test system: methicillin-sensitive Staphylococcus epidermidis (MSSE); assay: as above; details: for Anti-bacterial activity (MIC), strain MSSE 15-3: clinical isolate MSSE 15-3; for Anti-bacterial activity (MIC), strain MSSE 15-4: clinical isolate MSSE 15-4; for Anti-bacterial activity (MIC), strain MSSE 15-5: clinical isolate MSSE 15-5; for Anti-bacterial activity (MIC), strain MSSE 15-6: clinical isolate MSSE 15-6
Method in brief: as §1

[9] = test system: methicillin-resistant Staphylococcus aureus (MRSA); assay: as above; details: for Anti-bacterial activity (MIC), strain MRSA 15-1: clinical isolate MRSA 15-1; for Anti-bacterial activity (MIC), strain MRSA 15-2: clinical isolate MRSA 15-2; for Anti-bacterial activity (MIC), strain MRSA 15-3: clinical isolate MRSA 15-3; for Anti-bacterial activity (MIC), strain MRSA 15-4: clinical isolate MRSA 15-4
Method in brief: as §1

[10] = test system: Streptococcus pneoumoniae (SPN); assay: as above
Method in brief: as §1

[11] = test system: HCT-116 colorectal cancer cell line; assay: CCK-8 proliferation inhibition; details: 72 hours, CCK-8; for HCT116 inhibition rate/%: concentration of 30 μM, 30 µM
Method in brief: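 HCT-116 cells, seeded at 2000 cells/well in McCoy's 5A with 10% newborn bovine serum, were cultured overnight at 37° C., 5% CO2, then exposed to compound dilutions in medium for 72 hours. Viability was read with 1:10 diluted CCK-8; controls received 1‰ DMSO.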

[12] = test system: A549 lung cancer cell line; assay: CCK-8 proliferation inhibition; details: for inhibition at 30 µM: A549, 72 h; for inhibition at 30 µM / Inhibition of proliferation, Lung cancer A549: concentration of 30 μM; for Inhibition of proliferation, Lung cancer A549: 72 hours, 30 µM
Method in brief: (§2)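 Plating at 2000 cells/well, then incubation overnight at 37° C. Next, a range of compound concentrations for 72 hours (control 1‰ DMSO). Finally, medium decanted and CCK-8 diluted 1:10 added.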

[13] = test system: BEL-7402 liver cancer cell line; assay: CCK-8 proliferation inhibition; details: for Inhibition of proliferation, Liver cancer BEL-7402: concentration of 30 μM, 72 hours, 30 µM
Method in brief: as §2

[14] = test system: MGC-803 gastric cancer cell line; assay: CCK-8 proliferation inhibition; details: for inhibition at 30 µM: MGC-803, 72 h; for inhibition at 30 µM / Inhibition of proliferation, Gastric cancer MGC-803: concentration of 30 μM; for Inhibition of proliferation, Gastric cancer MGC-803: 72 hours, 30 µM
Method in brief: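 Cells were seeded at 2000 cells/well and cultured overnight at 37° C, 5% CO2, then exposed for 72 hours to compounds diluted from DMSO stocks. Controls received 1‰ DMSO. CCK-8 (1:10 diluted) replaced the medium. MGC-803 and Jurkat were grown in 1640, PC3 in F12, and MCF-7 in DMEM high glucose, each with 10% newborn bovine serum.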

## O=C(C[C@@H](CC1CCCC1)C(=O)N1CC2(CC2)C[C@H]1C(=O)Nc1nc(C(F)(F)F)cs1)NO [Example 73]
[1]
  MIC: < 0.008 µg/mL
[2]; strain EFA 15-1
  Anti-bacterial activity (MIC): 2 µg/mL
[2]; strain EFA 15-2
  Anti-bacterial activity (MIC): 2 µg/mL
[2]; strain EFA 15-3
  Anti-bacterial activity (MIC): 2 µg/mL
[2]; strain EFA 15-4
  Anti-bacterial activity (MIC): 2 µg/mL
[2]; strain EFA 15-5
  Anti-bacterial activity (MIC): 2 µg/mL
[2]; strain EFA 15-6
  Anti-bacterial activity (MIC): 2 µg/mL
[2]; strain EFA 15-9
  Anti-bacterial activity (MIC): 2 µg/mL
[3]
  Anti-bacterial activity (MIC), strain MSSA 15-3: 0.06 µg/mL
  Anti-bacterial activity (MIC), strain MSSA 15-4: 0.06 µg/mL
  Anti-bacterial activity (MIC), strain MSSA 15-5: 0.03 µg/mL
  Anti-bacterial activity (MIC), strain MSSA 15-6: 0.06 µg/mL
[4]; strain BCA 14-1
  Anti-bacterial activity (MIC): 1 µg/mL
[4]; strain BCA 14-4
  Anti-bacterial activity (MIC): 1 µg/mL
[4]; strain BCA 14-5
  Anti-bacterial activity (MIC): 0.25 µg/mL
[4]; strain BCA 14-6
  Anti-bacterial activity (MIC): 1 µg/mL
[4]; strain BCA 14-7
  Anti-bacterial activity (MIC): 0.125 µg/mL
[4]; strain BCA 14-8
  Anti-bacterial activity (MIC): 0.25 µg/mL
[4]; strain BCA 14-10
  Anti-bacterial activity (MIC): 0.125 µg/mL
[5]
  Anti-bacterial activity (MIC), strain ECO+ 15-1: 16 µg/mL
  Anti-bacterial activity (MIC), strain ECO+ 15-2: 32 µg/mL
  Anti-bacterial activity (MIC), strain ECO+ 15-3: 32 µg/mL
  Anti-bacterial activity (MIC), strain ECO+ 15-4: 32 µg/mL
  Anti-bacterial activity (MIC), strain ECO− 15-1: 32 µg/mL
  Anti-bacterial activity (MIC), strain ECO− 15-2: 32 µg/mL
  Anti-bacterial activity (MIC), strain ECO− 15-3: 32 µg/mL
  Anti-bacterial activity (MIC), strain ECO− 15-4: 32 µg/mL
[6]
  Anti-bacterial activity (MIC), strain MRSE 15-1: < 0.008 µg/mL
  Anti-bacterial activity (MIC), strain MRSE 15-2: 0.015 µg/mL
  Anti-bacterial activity (MIC), strain MRSE 15-3: < 0.008 µg/mL
  Anti-bacterial activity (MIC), strain MRSE 15-7: 0.06 µg/mL
[7]; strain EFM 15-1
  Anti-bacterial activity (MIC): 1 µg/mL
[7]; strain EFM 15-2
  Anti-bacterial activity (MIC): 1 µg/mL
[7]; strain EFM 15-3
  Anti-bacterial activity (MIC): 0.125 µg/mL
[7]; strain EFM 15-4
  Anti-bacterial activity (MIC): 1 µg/mL
[7]; strain EFM 15-5
  Anti-bacterial activity (MIC): 0.125 µg/mL
[7]; strain EFM 15-6
  Anti-bacterial activity (MIC): 1 µg/mL
[8]
  Anti-bacterial activity (MIC), strain MSSE 15-3: 0.015 µg/mL
  Anti-bacterial activity (MIC), strain MSSE 15-4: < 0.008 µg/mL
  Anti-bacterial activity (MIC), strain MSSE 15-5: < 0.008 µg/mL
  Anti-bacterial activity (MIC), strain MSSE 15-6: < 0.008 µg/mL
[9]
  Anti-bacterial activity (MIC), strain MRSA 15-1: 0.03 µg/mL
  Anti-bacterial activity (MIC), strain MRSA 15-2: 0.06 µg/mL
  Anti-bacterial activity (MIC), strain MRSA 15-3: 0.06 µg/mL
  Anti-bacterial activity (MIC), strain MRSA 15-4: 0.06 µg/mL
[10]; strain SPN 16-2
  Anti-bacterial activity (MIC): 1 µg/mL
[11]; Homo sapiens, HCT-116
  IC50: 6.21 µM
[11]
  HCT116 inhibition rate/%: 78%
[12]; Homo sapiens
  inhibition at 30 µM: > 50%
[12]; Homo sapiens, A549, 72 hours
  IC50: 5.12 µM
[12]
  Inhibition of proliferation, Lung cancer A549: 63%
[13]; Homo sapiens, Bel-7402, 72 hours
  IC50: 10 µM
[13]
  Inhibition of proliferation, Liver cancer BEL-7402: 81%
[14]; Homo sapiens
  inhibition at 30 µM: > 50%
[14]; Homo sapiens, MGC-803, 72 hours
  IC50: 12.7 µM
[14]
  Inhibition of proliferation, Gastric cancer MGC-803: 65%

## O=C(C[C@@H](CC1CCCC1)C(=O)N1CC2(CC2)C[C@H]1C(=O)Nc1nccs1)NO [Example 72, (S)-5-((R)-2-(cyclopentylmethyl)-4-(hydroxyamino)-4-oxobutanoyl)-N-(thiazol-2-yl)-5-azaspiro[2.4]heptane-6-carboxamide]
[1]
  MIC: < 0.008 µg/mL
[2]; strain EFA 15-1
  Anti-bacterial activity (MIC): 32 µg/mL
[2]; strain EFA 15-2
  Anti-bacterial activity (MIC): 32 µg/mL
[2]; strain EFA 15-3
  Anti-bacterial activity (MIC): 32 µg/mL
[2]; strain EFA 15-4
  Anti-bacterial activity (MIC): 32 µg/mL
[2]; strain EFA 15-5
  Anti-bacterial activity (MIC): 32 µg/mL
[2]; strain EFA 15-6
  Anti-bacterial activity (MIC): 32 µg/mL
[2]; strain EFA 15-9
  Anti-bacterial activity (MIC): 2 µg/mL
[3]
  Anti-bacterial activity (MIC), strain MSSA 15-3: 0.125 µg/mL
  Anti-bacterial activity (MIC), strain MSSA 15-4: 0.06 µg/mL
  Anti-bacterial activity (MIC), strain MSSA 15-5: 0.03 µg/mL
  Anti-bacterial activity (MIC), strain MSSA 15-6: 16 µg/mL
[4]; strain BCA 14-1
  Anti-bacterial activity (MIC): 0.25 µg/mL
[4]; strain BCA 14-4
  Anti-bacterial activity (MIC): 0.5 µg/mL
[4]; strain BCA 14-5
  Anti-bacterial activity (MIC): 0.125 µg/mL
[4]; strain BCA 14-6
  Anti-bacterial activity (MIC): 0.125 µg/mL
[4]; strain BCA 14-7
  Anti-bacterial activity (MIC): 0.5 µg/mL
[4]; strain BCA 14-8
  Anti-bacterial activity (MIC): 0.25 µg/mL
[4]; strain BCA 14-10
  Anti-bacterial activity (MIC): 0.125 µg/mL
[5]
  Anti-bacterial activity (MIC), strain ECO+ 15-1: 16 µg/mL
  Anti-bacterial activity (MIC), strain ECO+ 15-2: 16 µg/mL
  Anti-bacterial activity (MIC), strain ECO+ 15-3: 16 µg/mL
  Anti-bacterial activity (MIC), strain ECO+ 15-4: 16 µg/mL
  Anti-bacterial activity (MIC), strain ECO− 15-1: 16 µg/mL
  Anti-bacterial activity (MIC), strain ECO− 15-2: 16 µg/mL
  Anti-bacterial activity (MIC), strain ECO− 15-3: 16 µg/mL
  Anti-bacterial activity (MIC), strain ECO− 15-4: 16 µg/mL
[6]
  Anti-bacterial activity (MIC), strain MRSE 15-1: 0.03 µg/mL
  Anti-bacterial activity (MIC), strain MRSE 15-2: 0.125 µg/mL
  Anti-bacterial activity (MIC), strain MRSE 15-3: 0.125 µg/mL
  Anti-bacterial activity (MIC), strain MRSE 15-7: 0.125 µg/mL
[7]; strain EFM 15-1
  Anti-bacterial activity (MIC): 32 µg/mL
[7]; strain EFM 15-2
  Anti-bacterial activity (MIC): 32 µg/mL
[7]; strain EFM 15-3
  Anti-bacterial activity (MIC): 32 µg/mL
[7]; strain EFM 15-4
  Anti-bacterial activity (MIC): 0.5 µg/mL
[7]; strain EFM 15-5
  Anti-bacterial activity (MIC): 0.125 µg/mL
[7]; strain EFM 15-6
  Anti-bacterial activity (MIC): 0.5 µg/mL
[8]
  Anti-bacterial activity (MIC), strain MSSE 15-3: 0.06 µg/mL
  Anti-bacterial activity (MIC), strain MSSE 15-4: 0.125 µg/mL
  Anti-bacterial activity (MIC), strain MSSE 15-5: 0.125 µg/mL
  Anti-bacterial activity (MIC), strain MSSE 15-6: < 0.008 µg/mL
[9]
  Anti-bacterial activity (MIC), strain MRSA 15-1: 0.06 µg/mL
  Anti-bacterial activity (MIC), strain MRSA 15-2: 0.125 µg/mL
  Anti-bacterial activity (MIC), strain MRSA 15-3: 0.06 µg/mL
  Anti-bacterial activity (MIC), strain MRSA 15-4: 0.125 µg/mL
[10]; strain SPN 16-2
  Anti-bacterial activity (MIC): 0.5 µg/mL
[10]; strain SPN 16-4
  Anti-bacterial activity (MIC): 0.25 µg/mL
[11]
  HCT116 inhibition rate/%: 75%
[12]; Homo sapiens
  inhibition at 30 µM: > 50%
[12]
  Inhibition of proliferation, Lung cancer A549: 50%
[13]
  Inhibition of proliferation, Liver cancer BEL-7402: 76%
[14]; Homo sapiens
  inhibition at 30 µM: > 50%
[14]
  Inhibition of proliferation, Gastric cancer MGC-803: 63%
